Laboratory results as given in PMC9820559, “Investigation of the Fuzzy Complex between RSV Nucleoprotein and Phosphoprotein to Optimize an Inhibition Assay by Fluorescence Polarization” (International Journal of Molecular Sciences, 2022).
Values joined by “and” are separate entries in the source; they are usually repeats but may differ in a detail not shown here. Identical values can stand only once. Like-named read-outs stand apart in the source and are kept apart here. Ends that are not written are not given here. * marks the point of attachment. FITC = O=C1OC2(c3ccc(O)cc3Oc3cc(O)ccc32)c2ccc(NC(=S)*)cc21

How the values were obtained:
[1] = target: T1, RSV NNTD (Human respiratory syncytial virus A, UniProt P03418); assay: Fluorescence polarization inhibition of NNTD binding to F11
T1 construct: The N-terminal domain NNTD (residues 31–252), containing a C-terminal 6x histidine tag; 6xHis (C); made in house; host or cells: E. coli BL21(DE3)
Procedure: We therefore tested competition between M76 and F11 by FP. Measurements were done in salt-free buffer to take advantage of the higher F11-NNTD affinity. The concentration of NNTD was set to 5 µM to benefit from a high range of FP values, comprised between FPmin and ~80% FPmax. […] We fitted the data with a Hill equation (Equation (12)), assuming that the maximal inhibition of F11 binding to the canonical site by M76 was obtained at saturation.
Fluorescence polarization measurements were carried out on a Paradigm Detection Platform (Beckman Coulter, Brea, CA, USA) operating with a microplate reader, a fluorescein detection cartridge (excitation range 485/20 nm, emission range 535/25 nm for both parallel and perpendicular components) and the SpectraMax Pro 6.1 software (Molecular Devices, San Jose, CA, USA). […] Mixing was done using the corresponding plate reader option. […] Data were recorded in top reading mode. […] Fluorescence polarization (FP) in mFP units was determined from the parallel (I∥) and perpendicular (I⊥) components of the emitted light according to Equation (4). A grating factor G of 1.2 was determined using 1 nM fluorescein in 1 mM NaOH and assuming a theoretical FP of 27 mFP [48]. Background signal was measured from wells containing only buffer, and the mean value was subtracted from each I∥ and I⊥ component. […]

[2] = target: T2, RSV N-RNA complex (Human respiratory syncytial virus A, UniProt P03418); assay: Fluorescence polarization inhibition of N-RNA binding to fluorescent probes
T2 construct: Full-length N was produced by co-expression with the C-terminal domain of RSV P protein in E. coli BL21(DE3); made in house; host or cells: E. coli BL21(DE3), co-transformed with pET-N and pGEX-P(161–241)
T2 sequence (P03418 whole entry, looked up, the tested form may be a part, one chain of several): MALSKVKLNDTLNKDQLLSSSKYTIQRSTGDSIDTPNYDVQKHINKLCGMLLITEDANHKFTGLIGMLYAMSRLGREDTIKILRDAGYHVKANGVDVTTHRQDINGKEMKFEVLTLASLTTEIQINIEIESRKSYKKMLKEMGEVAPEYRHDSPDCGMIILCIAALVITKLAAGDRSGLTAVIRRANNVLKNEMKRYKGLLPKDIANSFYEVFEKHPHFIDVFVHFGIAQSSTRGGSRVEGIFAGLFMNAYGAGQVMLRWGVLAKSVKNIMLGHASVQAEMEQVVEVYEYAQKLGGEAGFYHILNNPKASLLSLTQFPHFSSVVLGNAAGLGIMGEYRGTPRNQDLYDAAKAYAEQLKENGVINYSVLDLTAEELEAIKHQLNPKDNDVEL
From the text: We next performed inhibition experiments for the F11-(N-RNA) complex by M76 (Figure 4B). FP values decreased with increasing competitor concentration. At saturation, FP nearly reached the value of free F11, showing that the F11 peptide could be nearly completely displaced. Since the same concentration range was used for NNTD and N-RNA, poor solubility of M76 can be ruled out to explain the saturation observed before complete displacement of F11 in the presence NNTD (Figure 3C). This reinforces the hypothesis of a second binding site on NNTD, outside the canonical P-binding site. […]
To probe the potency of M76 as an inhibitor, we carried out competition experiments with the M76 molecule and several BCNn peptides. M76 was able to displace the fluorescent probes from N-RNA, and inhibition curves were obtained (Figure 8E). Since we used different N concentrations to have similar dynamic ranges of FP for the series of fluorescent peptides, we cannot directly compare M76 IC50s. However, Kis may be compared.
Fluorescence polarization measurements were carried out on a Paradigm Detection Platform (Beckman Coulter, Brea, CA, USA) operating with a microplate reader, a fluorescein detection cartridge (excitation range 485/20 nm, emission range 535/25 nm for both parallel and perpendicular components) and the SpectraMax Pro 6.1 software (Molecular Devices, San Jose, CA, USA). Samples were placed in polystyrene black flat bottom 96-well microplates (Cellstar, Greiner bio-one, Frickenhausen, Germany) with 20 µL final volume in each well. If not stated otherwise, the final concentration of fluorescent ligands was 200 nM. The buffer was either 20 mM MES pH 6.5, salt-free or with 250 mM NaCl, or 20 mM Tris pH 8.0 salt-free or with 100 mM NaCl, supplemented with 0.01% Brij-35. Mixing was done using the corresponding plate reader option. The temperature was set to 20 °C. Data were recorded in top reading mode. Measurements were done in triplicate and after an incubation time of 30 min, if not indicated otherwise. Fluorescence polarization (FP) in mFP units was determined from the parallel (I∥) and perpendicular (I⊥) components of the emitted light according to Equation (4). A grating factor G of 1.2 was determined using 1 nM fluorescein in 1 mM NaOH and assuming a theoretical FP of 27 mFP [48]. Background signal was measured from wells containing only buffer, and the mean value was subtracted from each I∥ and I⊥ component. (4) FP (mP)=1000×(I∥−G∗I⊥)/(I∥+G×I⊥)
To assess inhibition of a complex between a fluorescent probe and N protein by peptides or the M76 molecule, the concentration of N was set to work with an FP range comprised between FPmin and ~80% FPmax. Peptides were added from 1 or 2 mM stock solution in water at neutral pH. M76 was added from 10 or 20 mM stock solutions in ethanol or in DMSO. […] Inhibition data were fitted with Origin 7, and in parallel with the Excel solver module. All data were compatible with an absence of cooperativity. FPmax and FPmin were fitted, and the maximal inhibition %i,max was set to 100%. (11) %i=100×[1−(FP−FPmin)/(FPmax−FPmin)] (12) %i=%i,max×[inhibitor]/[inhibitor]+IC50
Inhibition constants Ki were calculated on the IC50-to-Ki converter for a protein-ligand-inhibitor system (https://bioinfo-abcc.ncifcrf.gov/IC50_Ki_Converter/index.php, accessed on 24 August 2022), assuming a competitive mechanism (Equation (13)). This tool takes into account the free concentrations of protein and ligand. (13) Ki=(IC50−[protein]/2)/([peptide]/Kd+1)

[3] = target: T3, RSV nucleoprotein N-terminal domain NNTD (residues 31–252) (human respiratory syncytial virus, UniProt P03418 31-252); assay: fluorescence polarisation; 200 nM F11, NNTD varied; 20 mM MES pH 6.5 without salt, 0.01% Brij-35; 20 °C; single site plus a linear contribution; conditions: both partners purified
T3 construct: N-terminal domain of human RSV nucleoprotein N, residues 31-252; 15N-labelled for the NMR titration; also called N(31–252); 15N-NNTD; source: E. coli BL21(DE3), pET-N(31–252), purified as described previously [21]
T3 sequence (looked up): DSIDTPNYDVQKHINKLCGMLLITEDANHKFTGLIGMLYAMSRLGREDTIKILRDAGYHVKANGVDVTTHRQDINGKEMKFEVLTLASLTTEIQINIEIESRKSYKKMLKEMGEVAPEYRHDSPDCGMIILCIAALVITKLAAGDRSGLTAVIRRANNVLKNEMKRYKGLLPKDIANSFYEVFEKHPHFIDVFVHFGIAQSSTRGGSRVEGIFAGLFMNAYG

[4] = target: T3, RSV nucleoprotein N-terminal domain …; assay: fluorescence polarisation; 200 nM F11, NNTD 0.1–120 µM; 20 mM MES pH 6.5, 250 mM NaCl, 0.01% Brij-35; 20 °C; single site model; saturation not reached; conditions: both partners purified

`O=C(O)c1cc(C(=O)O)n(Cc2ccc(Cl)cc2Cl)n1` [M76, 1-(2,4-dichlorobenzyl)-1H-pyrazole-3,5-dicarboxylic acid] showed an IC50 [1] of 28 ± 5 µM, a Ki [1] of 2.5 µM and an IC50 ([2]; fluorescent probe F7E 200 nM, 10 µM N-RNA, Tris pH 8 without salt, read-out: IC50) of 48 ± 5 µM. The Ki ([2]; fluorescent probe F7E 200 nM, 10 µM N-RNA, from IC50 and Kd 2.5 µM, read-out: Ki) was 8 µM, the IC50 ([2]; fluorescent probe F11 200 nM, 10 µM N-RNA, Tris pH 8 without salt, read-out: IC50) was 12.6 µM and 13 µM and the Ki ([2]; fluorescent probe F11 200 nM, 10 µM N-RNA, from IC50 and Kd 7.6 µM with IC50-to-Ki server, read-out: Ki) was 3 µM. It also gave an IC50 ([2]; fluorescent probe fluorescein 1 200 nM, 20 µM N-RNA, read-out: M76 IC50) of 27 ± 2 µM, a Ki ([2]; fluorescent probe fluorescein 1, 20 µM N-RNA, from IC50 and Kd, read-out: M76 Ki) of 13 µM and an IC50 ([2]; fluorescent probe fluorescein ethyl ester 3 200 nM, 20 µM N-RNA, read-out: M76 IC50) of 65 ± 9 µM. For the same molecule, the Ki ([2]; fluorescent probe fluorescein ethyl ester 3, 20 µM N-RNA, from IC50 and Kd, read-out: M76 Ki) was 50 µM, the IC50 ([2]; fluorescent probe fluorescein methyl ester 2 200 nM, 20 µM N-RNA, read-out: M76 IC50) was 46 ± 7 µM and the Ki ([2]; fluorescent probe fluorescein methyl ester 2, 20 µM N-RNA, from IC50 and Kd, read-out: M76 Ki) was 32 µM. The IC50 ([2]; probe BCN5E 200 nM, [N-RNA] 2 µM, Tris pH 8, read-out: Fitted IC50) was 7 ± 0.6 µM, the IC50 ([2]; probe BCN5E 200 nM, [N-RNA] 20 µM, Tris pH 8, read-out: Fitted IC50) was 26 ± 2 µM and the Ki ([2]; probe BCN5E, [N-RNA] 2 µM, IC50-to-Ki server, read-out: Ki) was 4.8 µM. The Ki ([2]; probe BCN5E, [N-RNA] 20 µM, IC50-to-Ki server, read-out: Ki) was 3.6 µM, the Ki ([2]; probe BCN5E, [N-RNA] 2 and 20 µM, read-out: Ki values for inhibition of BCN5E) was 3.6 to 4.8 µM and the IC50 ([2]; probe BCN6E 200 nM, [N-RNA] 2 µM, Tris pH 8, read-out: Fitted IC50) was 2.7 ± 0.2 µM. It also gave an IC50 ([2]; probe BCN6E 200 nM, [N-RNA] 10 µM, Tris pH 8, read-out: Fitted IC50) of 14 ± 1 µM, a Ki ([2]; probe BCN6E, [N-RNA] 2 µM, IC50-to-Ki server, read-out: Ki) of 0.7 µM and a Ki ([2]; probe BCN6E, [N-RNA] 10 µM, IC50-to-Ki server, read-out: Ki) of 1.1 µM. The IC50 ([2]; probe BCN8E 200 nM, [N-RNA] 2 µM, Tris pH 8, read-out: Fitted IC50) was 4.5 ± 0.4 µM, the IC50 ([2]; probe BCN8E 200 nM, [N-RNA] 5 µM, Tris pH 8, read-out: Fitted IC50) was 13 ± 2 µM and the Ki ([2]; probe BCN8E, [N-RNA] 2 µM, IC50-to-Ki server, read-out: Ki) was 1.3 µM. It also gave a Ki ([2]; probe BCN8E, [N-RNA] 5 µM, IC50-to-Ki server, read-out: Ki) of 2 µM, an IC50 ([2]; probe BCN10EE 200 nM, [N-RNA] 2 µM, Tris pH 8, read-out: Fitted IC50) of 8.9 ± 0.6 µM and an IC50 ([2]; probe BCN10EE 200 nM, inhibitor M76, [N-RNA] 1 µM, Tris pH 8, read-out: Fitted IC50) of 8.5 ± 0.6 µM. For the same molecule, the Ki ([2]; probe BCN10EE, [N-RNA] 2 µM, IC50-to-Ki server, read-out: Ki) was 0.5 µM, the Ki ([2]; probe BCN10EE, inhibitor M76, [N-RNA] 1 µM, IC50-to-Ki server, read-out: Ki) was 1.1 µM and the IC50 ([2]; probe BCN11SE 200 nM, [N-RNA] 5 µM, Tris pH 8, read-out: Fitted IC50) was 17 ± 2 µM. It also gave a Ki ([2]; probe BCN11SE, [N-RNA] 5 µM, IC50-to-Ki server, read-out: Ki) of 1.8 µM.

B1: F11 (fluorescein-5-thiourea-labelled RSV P11 peptide) (peptide)
peptide: {FITC}-DSDNDLSLEDF
notes: C-terminal 11 residues of RSV phosphoprotein P; also called F_(11SS); FTU-P11; source: bought P11 peptide (GeneCust), FITC coupled in solution, HPLC purified
Molecule B1 has a Kd [3] of 0.6 ± 0.1 µM and a Kd [4] of 90 ± 15 µM.
